“Also recorded” adds a separate entry of the source. Marks after values point to notes of the source that are not given here.
How the values were obtained:
[1] = tested on: DOHH2 human tumor xenografts; settings: for Median Survival Time: CAS024 10 μg IV days 0, 4, 8, Bendamustine 10 mg/kg IP days 0, 2, 4, 7, 9, alone or combined; for clinical signs of toxicity: CAS024 10 μg IV, Bendamustine 10 mg/kg IP
Experimental: Establishment of tumor xenografts and sorting into treatment groups. […] The tumor-bearing mice were sorted into five groups with equivalent mean tumor volumes (n=15 per group; 3 cages of 5 mice for each group).
In vivo treatment. Groups of mice were treated with an injection of 0.2 mL of PBS containing 10 μg huIgG (days 0, 4, 8 IV), 10 μg CAS024 (days 0, 4, 8 IV), 10 mg/kg Bendamustine (0, 2, 4, 7, 9 IP), or 10 μg CAS024 (days 0, 4, 8 IV) AND 10 mg/kg Bendamustine (0, 2, 4, 7, 9 IP).
Monitoring and endpoints. Mice were monitored daily by visual inspection. […] Tumor volumes were calculated as described above.

[2] = molecular target: T1, CD37 on BJAB cells (Homo sapiens, UniProt P11049); assay: Competitive binding / cross blocking of FITC-conjugated anti-CD37 reagents on BJAB cells; settings: unlabeled blocking reagent
T1 construct: endogenous in cells; host or cells: BJAB cells
T1 sequence (P11049 1-281): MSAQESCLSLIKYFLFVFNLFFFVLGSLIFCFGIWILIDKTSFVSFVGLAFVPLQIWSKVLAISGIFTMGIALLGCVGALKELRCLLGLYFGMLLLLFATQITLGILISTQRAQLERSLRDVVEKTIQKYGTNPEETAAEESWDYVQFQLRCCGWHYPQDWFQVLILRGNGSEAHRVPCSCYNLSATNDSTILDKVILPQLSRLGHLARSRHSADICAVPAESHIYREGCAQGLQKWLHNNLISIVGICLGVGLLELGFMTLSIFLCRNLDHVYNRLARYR
Experimental: FITC labeled antibody conjugates were titrated from 10 ng/mL to 10 μg/mL in an initial binding study to determine the optimal amount to use in the blocking studies. The level chosen was just below saturating amounts, and was kept constant in the subsequent assays, while levels of blocking antibody were increased over a 10-fold range. Data were plotted as percent of maximal binding versus concentration of blocking antibody, so that higher levels indicate less efficient blocking, while lower levels indicate more efficient blocking activity.
For competitive binding assays, 2.5×10^5 BJAB cells were incubated in 96-well V-bottom plates in staining media (PBS with 2% mouse sera) with the FITC-conjugated anti-CD37 mAbs at 1.25 μg/mL in the presence of unconjugated anti-CD37 MAb at the indicated concentrations (2.5, 1.25, 0.6, or 0.3 μg/ml) or staining media for 45 minutes on ice in the dark. Blocking antibodies and FITC labeled antibody conjugates were added to reactions prior to addition of cells. The cells were then washed […] with PBS and fixed with 1% paraformaldehyde (USB, Cleveland, Ohio). The treated cells were analyzed by flow cytometry using a FACsCalibur instrument and CellQuest software (BD Biosciences, San Jose, Calif.). […]

[3] = SMIP expression in transfected HEK293 cells, day 7 supernatants titered with Protein A sensor; settings: supernatants day 7
Source text: CAS-024 and other CD37-specific binding SMIP molecules were produced by recombinant DNA technology and transfected into HEK293 cells for 7 days. Cell culture supernatants were harvested on day 7 and titered using Octec Q Protein A sensor.

[4] = molecular target: T2, CD37 on Ramos cells (Homo sapiens, UniProt P11049); assay: FMAT competition assay against FMAT Blue labeled CAS-006 for binding to Ramos cells
T2 construct: endogenous in cells; host or cells: Ramos cells
T2 sequence (P11049 1-281): T1 sequence (P11049 1-281)
Source text: A competition assay was used to compare the binding affinity of different anti-CD37 specific small modular immunopharmaceutical (SMIP) molecules to CD-37 found on Ramos cells (a B-lymphoblastoid cell line derived from a Burkitt lymphoma). An SEC purified chimeric anti-CD37 SMIP molecule (CAS-006, SEQ ID NO:247) was labeled with the FMAT Blue® fluorescence dye (Applied Biosystems) and used as the standard to compete with purified unlabeled chimeric anti-CD37 SMIP molecule (positive control) and purified unlabeled humanized anti-CD37 SMIP test molecules. […] The plates were incubated at room temperature for 30 min and read on an 8200 Cellular Detection System (Applied Biosystems) gated for middle cell size and low signal.
A competition assay as described in Example 4 was used to compare the binding affinity of different mouse-human hybrid anti-CD37 SMIP molecules compared to CAS-024 binding to Ramos cells. An SEC purified chimeric anti-CD37 SMIP molecule (CAS-006, SEQ ID NO:247) was labeled with the FMAT Blue® fluorescence dye (Applied Biosystems) and used as the standard to compete with purified unlabeled chimeric anti-CD37 SMIP molecule (CAS-006, positive control) and purified unlabeled humanized anti-CD37 SMIP test molecules—CAS-002 (SEQ ID NO:48), CAS-003 (SEQ ID NO:52), CAS-014 (SEQ ID NO:251), CAS-017 (SEQ ID NO:252), and CAS-024 (SEQ ID NO:253).

[5] = tested on: human tumor (DOHH2) xenograft; assay: Dose response in established subcutaneous DOHH2 xenograft model in SCID mice; type: in vivo
Experimental: Mice were monitored daily by visual inspection. […] Tumor volumes were calculated as described above.

[6] = SMIP expression in transfected CHO cells, supernatants titered with Protein A sensor; set-up: species or system Chinese Hamster Ovary (CHO); settings: shake flasks, culture supernatants
Experimental: CAS-024 and other CD37-specific binding SMIP molecules were cloned into a Chinese Hamster Ovary (CHO) mammalian cell expression system. Transfected CHO cells that produced the SMIP molecules were cultured in shake flasks and harvested cell culture supernatants were titered using Octec Q Protein A sensor.

[7] = tested on: human tumor (DOHH2) xenograft; assay: Single agent efficacy in established DOHH2 xenograft model in SCID mice; type: in vivo; settings: for Death (other than for Tumor Size Sacrifice) / Median Survival Time: 200 μg IP days 0, 4, 8, cumulative 600 μg; for mean tumor volume compared with human IgG treated group: day 4 through day 11
Experimental: Mice were monitored daily by visual inspection. […] Tumor volumes were calculated as described above. Tumor volumes on the last day that all mice were alive in each group were also expressed in terms of tumor volumes relative to day 0, using the formula: Relative tumor volume on day of interest=(volume on day of interest−volume on day 0)volume on day 0

[8] = 3 μg IP days 0, 4, 8, cumulative 9 μg
[9] = 10 μg IP days 0, 4, 8, cumulative 30 μg
[10] = 30 μg IP days 0, 4, 8, cumulative 90 μg
[11] = 100 μg IP days 0, 4, 8, cumulative 300 μg

Cn1c(CCCC(=O)O)nc2cc(N(CCCl)CCCl)ccc21 [Bendamustine, 4-[5-[Bis(2-chloroethyl)amino]-1-methylbenzimidazol-2-yl]butanoic acid, reference compound]
Median Survival Time [1]: 17 days | clinical signs of toxicity [1]: scruffy coats and diarrhea

CAS-006: chimeric anti-CD37 SMIP protein (mVLmVH) with variable regions from mouse mAb G28-1, SEQ ID NO:247
blocking activity (inhibition of binding of FITC-conjugated anti-CD37) [2]: highest level of blocking activity | Protein Titer [3]: 9.3 µg/mL

G28-1 VH (M99F, Y102S)-VL (T25A) scFv (SSC-P) H WCH2 WCH3 [CAS-024]
greater affinity for CD37 than humanized VLVH SMIP molecules with 16 amino acid linker ([4]; Ramos cells): ≤ 4 fold | affinity for CD37 compared with parent chimeric CAS-006 ([4]; competition with labeled CAS-006, Ramos cells): substantially the same affinity; also recorded: same binding affinity | Median Survival Time [1]: 17^b Days | clinical signs of toxicity [1]: No clinical signs of toxicity | Death (Not Due to Large Tumor Volume) [5, 8]: 0/14 | Median Survival Time [5, 8]: 19 days | Death (Not Due to Large Tumor Volume) [5, 9]: 0/14 | Median Survival Time [5, 9]: 28 days | Death (Not Due to Large Tumor Volume) [5, 10]: 0/14 | Median Survival Time [5, 10]: 35 days | Death (Not Due to Large Tumor Volume) [5, 11]: 1/14^h | Median Survival Time [5, 11]: Undefined | Death (Not Due to Large Tumor Volume) ([5]; 200 μg IP days 0, 4, 8, cumulative 600 μg): 0/14 | effect on the growth of DOHH2 tumors ([5]; 3 to 200 μg IP days 0, 4, 8): dose-dependent inhibitory effect | Protein Titer Range [6]: 500 to 650 µg/mL | Death (other than for Tumor Size Sacrifice) [7]: 1/15^f | Median Survival Time [7]: Undefined^d, e | mean tumor volume compared with human IgG treated group [7]: significantly lower | Protein Titer [3]: 12.7 µg/mL

Rituxan: anti-CD20 treatment used as single agent comparator [reference compound]
Death (other than for Tumor Size Sacrifice) [7]: 0/15 | Median Survival Time [7]: 43 days | mean tumor volume compared with human IgG treated group [7]: significantly lower

Reference: US8333966B2, “CD37 immunotherapeutics and uses thereof” (Emergent Product Development Seattle, LLC, priority 2008, dated 2012)
